In assay [1] the target is adenosine A2A receptor (Homo sapiens (Human), UniProt P29274). Put plainly: Adenosine receptor activity assay (Table 1), A2A activity. Type of assay: biochemical. Conditions: read-out: Ave A2A cAMP IC50.
Assay [2] has as its target adenosine A2B receptor (Homo sapiens (Human), UniProt P29275). Briefly: Adenosine receptor activity assay (Table 1), A2B activity. Type of assay: biochemical. The settings on record: for Ratio: A2A activity to A2B activity (A2A/A2B); for IC50: read-out: Ave A2B cAMP IC50.

The structures appear in SMILES notation.

Sequence of adenosine A2A receptor (P29274 whole entry): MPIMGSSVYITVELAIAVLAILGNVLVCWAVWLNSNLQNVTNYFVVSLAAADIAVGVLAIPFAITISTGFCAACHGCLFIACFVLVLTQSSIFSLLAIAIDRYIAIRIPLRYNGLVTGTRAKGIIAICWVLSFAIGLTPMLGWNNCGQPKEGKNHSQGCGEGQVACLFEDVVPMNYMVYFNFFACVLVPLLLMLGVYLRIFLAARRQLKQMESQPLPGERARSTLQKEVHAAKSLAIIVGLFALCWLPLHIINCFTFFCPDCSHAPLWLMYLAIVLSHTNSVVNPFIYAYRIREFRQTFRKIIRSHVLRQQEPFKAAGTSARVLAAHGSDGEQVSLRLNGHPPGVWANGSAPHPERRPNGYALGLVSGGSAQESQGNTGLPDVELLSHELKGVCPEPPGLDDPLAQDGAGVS
Sequence of adenosine A2B receptor (P29275 whole entry): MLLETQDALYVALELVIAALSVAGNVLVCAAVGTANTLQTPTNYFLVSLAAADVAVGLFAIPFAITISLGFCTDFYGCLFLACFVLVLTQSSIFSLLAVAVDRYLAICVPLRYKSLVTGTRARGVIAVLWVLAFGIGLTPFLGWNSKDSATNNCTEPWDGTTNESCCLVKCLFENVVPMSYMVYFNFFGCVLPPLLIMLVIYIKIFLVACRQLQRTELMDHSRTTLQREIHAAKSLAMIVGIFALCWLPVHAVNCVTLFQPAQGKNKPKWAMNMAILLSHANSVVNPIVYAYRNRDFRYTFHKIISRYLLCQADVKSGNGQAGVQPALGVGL

In general, IC50 refers to the concentration needed to halve the response being measured. With `COc1cncc(CNc2nc(C(=O)N3CC(O)C3)c3sccc3n2)c1` [Example Z119, (3-Hydroxyazetidin-1-yl)(2-(((5-methoxypyridin-3-yl)methyl)amino)thieno[3,2-d]pyrimidin-4-yl)methanone], the IC50 in assay [1] was above 500 nM. Further, in assay [2], the Ratio was 2.08 and the IC50 was in the range of 100 to 500 nM.

Turning to `O=C(c1nc(NCc2cccc(Cl)c2)nc2ccsc12)N1CCCC1` [Example Z120, (2-((3-Chlorobenzyl)amino)thieno[3,2-d]pyrimidin-4-yl)(pyrrolidin-1-yl)methanone], the IC50 in assay [1] is 100 to 500 nM; in assay [2], 10 to 50 nM. Besides, the Ratio in assay [2] came out at 13.39.

As to `COCC(Nc1nc(C(=O)N2CC[C@H](O)C2)c2sccc2n1)c1cccnc1` (stereo partly drawn) [Example Z124, ((S)-3-Hydroxypyrrolidin-1-yl)(2-((2-methoxy-1-(pyridin-3-yl)ethyl)amino)thieno[3,2-d]pyrimidin-4-yl)methanone], in assay [1], the IC50 was above 500 nM. For the same compound, in assay [2], the Ratio is reported as 2.13 and the IC50 is 100 to 500 nM.

As to `COCC(Nc1nc(C(=O)N2CCCC2)c2sccc2n1)c1cccnc1` (stereo not drawn) [Example Z127, (2-((2-Methoxy-1-(pyridin-3-yl)ethyl)amino)thieno[3,2-d]pyrimidin-4-yl)(pyrrolidin-1-yl)methanone], the IC50 was in the range of 100 to 500 nM in assay [1] and 10 to 50 nM in assay [2].

Take `CC1CCN1C(=O)c1nc(N[C@@H](C)c2ccccn2)nc2ccsc12` (stereo partly drawn) [Example Z133, (2-Methylazetidin-1-yl)(2-(((S)-1-(pyridin-2-yl)ethyl)amino)thieno[3,2-d]pyrimidin-4-yl)methanone]: the IC50 in assay [1] and in assay [2] was 10 to 50 nM each time. Moreover, in assay [2], the Ratio is given as 3.85.

In the case of `CC(C)(C)OC(=O)N1CCN(C(=O)c2nc(NCc3cncc(F)c3)nc3ccsc23)C1` [Example Z135, tert-Butyl 3-(2-(((5-fluoropyridin-3-yl)methyl)amino)thieno[3,2-d]pyrimidine-4-carbonyl)imidazolidine-1-carboxylate], the IC50 in assay [1] is above 500 nM. In addition, in assay [2], the Ratio stood at 3.11 and the IC50 fell in the range of 100 to 500 nM.

Turning to `COc1cc(F)cc(CNc2nc(C(=O)N3CC(C)(O)C3)c3sccc3n2)c1` [Example Z136, (2-((3-Fluoro-5-methoxybenzyl)amino)thieno[3,2-d]pyrimidin-4-yl)(3-hydroxy-3-methylazetidin-1-yl)methanone], the figures for the IC50 in assay [1] and in assay [2] were above 500 nM and 50 to 100 nM, respectively. In addition, the Ratio in assay [2] came out at 11.51.

For the compound `C[C@H](Nc1nc(C(=O)N2CCN(C(=O)OC(C)(C)C)C2)c2sccc2n1)c1cccnc1` [Example Z140, tert-Butyl (S)-3-(2-((1-(pyridin-3-yl)ethyl)amino)thieno[3,2-d]pyrimidine-4-carbonyl)imidazolidine-1-carboxylate], the IC50 in assay [1] and in assay [2] was above 500 nM throughout. Also, the Ratio in assay [2] amounted to 1.36.

Turning to `NC(=O)c1cncc(CNc2nc(C(=O)N3CCCC3)c3sccc3n2)c1` [Example Z142, 5-(((4-(Pyrrolidine-1-carbonyl)thieno[3,2-d]pyrimidin-2-yl)amino)methyl)nicotinamide], the IC50 in assay [1] was above 500 nM. In assay [2], the Ratio came to 2.76 and the IC50 is above 500 nM.

Turning to `COCCNC(=O)c1nc(NCc2cncc(F)c2)nc2ccsc12` [Example Z146, 2-(((5-Fluoropyridin-3-yl)methyl)amino)-N-(2-methoxyethyl)thieno[3,2-d]pyrimidine-4-carboxamide], the IC50 in assay [1] is 100 to 500 nM; in assay [2], 10 to 50 nM.

On to `C[C@H](Nc1nc(C(=O)N2CCNC2)c2sccc2n1)c1cccnc1` [Example Z148, (S)-Imidazolidin-1-yl(2-((1-(pyridin-3-yl)ethyl)amino)thieno[3,2-d]pyrimidin-4-yl)methanone], for which the IC50 in assay [1] was above 500 nM. For the same compound, in assay [2], the Ratio is 4.87 and the 50% inhibitory concentration (IC50) is above 500 nM.

Take `O=C(c1nc(NCc2cncc(F)c2)nc2ccsc12)N1CCNC1` [Example Z149, (2-(((5-Fluoropyridin-3-yl)methyl)amino)thieno[3,2-d]pyrimidin-4-yl)(imidazolidin-1-yl)methanone]: the IC50 in assay [1] was above 500 nM. For the same compound, in assay [2], the Ratio was found to be 14.43 and the IC50 was above 500 nM.

Take `C[C@H](Nc1nc(C(=O)N[C@H]2CCNC2)c2sccc2n1)c1ccccn1` [Example Z150, 2-(((S)-1-(pyridin-2-yl)ethyl)amino)-N—((S)-pyrrolidin-3-yl)thieno[3,2-d]pyrimidine-4-carboxamide]: the IC50 in assay [1] and in assay [2] was above 500 nM each time. In assay [2], the Ratio came out at 7.05.

With `C[C@H](Nc1nc(C(=O)NCC2CCN(Cc3ccccc3)CC2)c2sccc2n1)c1ccccn1` [Example Z151, (S)—N-((1-Benzylpiperidin-4-yl)methyl)-2-((1-(pyridin-2-yl)ethyl)amino)thieno[3,2-d]pyrimidine-4-carboxamide], the half-inhibitory concentration (IC50) in assay [1] and in assay [2] was 100 to 500 nM in each case.

On to `O=C(NC1CCC1)c1nc(NCc2cnccn2)nc2ccsc12` [Example Z154, N-Cyclobutyl-2-((pyrazin-2-ylmethyl)amino)thieno[3,2-d]pyrimidine-4-carboxamide], for which the IC50 in assay [1] lay within 100 to 500 nM; in assay [2] it was 50 to 100 nM. In assay [2], the Ratio was determined as 4.52.

As to `O=C(c1nc(NCc2cnccn2)nc2ccsc12)N1CCC1` [Example Z155, Azetidin-1-yl(2-((pyrazin-2-ylmethyl)amino)thieno[3,2-d]pyrimidin-4-yl)methanone], the IC50 in assay [1] was above 500 nM. Also, in assay [2], the Ratio is recorded as 18.83 and the IC50 is 50 to 100 nM.

Take `O=C(c1nc(NCc2cnccn2)nc2ccsc12)N1CC[C@H](O)C1` [Example Z156, (S)-(3-Hydroxypyrrolidin-1-yl)(2-((pyrazin-2-ylmethyl)amino)thieno[3,2-d]pyrimidin-4-yl)methanone]: the IC50 in assay [1] was above 500 nM. In addition, in assay [2], the Ratio turned out to be 14.60 and the IC50 was above 500 nM.

With `COCCNC(=O)c1nc(NCc2cnccn2)nc2ccsc12` [Example Z157, N-(2-Methoxyethyl)-2-((pyrazin-2-ylmethyl)amino)thieno[3,2-d]pyrimidine-4-carboxamide], the IC50 in assay [1] and in assay [2] was above 500 nM throughout. Besides, the Ratio in assay [2] was found to be 3.17.

For `O=C(c1nc(NCc2cc(F)cc(F)c2)nc2ccsc12)N1CCC1` [Example Z168, Azetidin-1-yl(2-((3,5-difluorobenzyl)amino)thieno[3,2-d]pyrimidin-4-yl)methanone], in assay [1], the IC50 lay in the range of 100 to 500 nM. In assay [2], the Ratio came out at 36.14 and the IC50 is 10 to 50 nM.

As for `CC(C)(C)OC(=O)N1CC(NC(=O)c2nc(NCc3cncc(F)c3)nc3ccsc23)C1` [Example Z178, tert-Butyl 3-(2-(((5-fluoropyridin-3-yl)methyl)amino)thieno[3,2-d]pyrimidine-4-carboxamido)azetidine-1-carboxylate], in assay [1], the IC50 is 100 to 500 nM. Moreover, in assay [2], the Ratio amounted to 3.76 and the IC50 lay within 100 to 500 nM.

`C[C@H](Nc1nc(C(=O)NC2CN(C(=O)OC(C)(C)C)C2)c2sccc2n1)c1ccccn1` [Example Z179, tert-Butyl (S)-3-(2-((1-(pyridin-2-yl)ethyl)amino)thieno[3,2-d]pyrimidine-4-carboxamido)azetidine-1-carboxylate]: the IC50 in assay [1] lay within 50 to 100 nM. Moreover, in assay [2], the Ratio worked out at 1.09 and the IC50 lay within 50 to 100 nM.

Consider `C[C@H](Nc1nc(C(=O)N[C@@H](C)CO)c2sccc2n1)c1ccccn1` [Example Z181, N—((S)-1-Hydroxypropan-2-yl)-2-(((S)-1-(pyridin-2-yl)ethyl)amino)thieno[3,2-d]pyrimidine-4-carboxamide], for which, in assay [1], the IC50 was 100 to 500 nM. Moreover, in assay [2], the Ratio was 5.43 and the IC50 lay in the range of 50 to 100 nM.

As to `C[C@H](CO)NC(=O)c1nc(N[C@@H](C)c2ccccn2)nc2ccsc12` [Example Z182, N—((R)-1-Hydroxypropan-2-yl)-2-(((S)-1-(pyridin-2-yl)ethyl)amino)thieno[3,2-d]pyrimidine-4-carboxamide], the IC50 in assay [1] lay in the range of 100 to 500 nM. In addition, in assay [2], the Ratio was found to be 5.92 and the IC50 is 50 to 100 nM.

As to `Nc1cc2nc(NCc3cccnc3)nc(C(=O)N3CCCC3)c2s1` [Example Z186, (6-Amino-2-((pyridin-3-ylmethyl)amino)thieno[3,2-d]pyrimidin-4-yl)(pyrrolidin-1-yl)methanone], the IC50 in assay [1] is above 500 nM. Moreover, in assay [2], the Ratio is given as 29.35 and the IC50 lay within 50 to 100 nM.

With `C[C@H](Nc1nc(C(=O)NCC2CCC2)c2sccc2n1)c1ccccn1` [Example Z193, (S)—N-(Cyclobutylmethyl)-2-((1-(pyridin-2-yl)ethyl)amino)thieno[3,2-d]pyrimidine-4-carboxamide], the figures for the IC50 in assay [1] and in assay [2] were 50 to 100 nM and 10 to 50 nM, respectively. In addition, the Ratio in assay [2] amounted to 4.46.

For `C[C@H](Nc1nc(C(=O)NC2COC2)c2sccc2n1)c1ccccn1` [Example Z194, (S)—N-(Oxetan-3-yl)-2-((1-(pyridin-2-yl)ethyl)amino)thieno[3,2-d]pyrimidine-4-carboxamide], in assay [1], the IC50 lay in the range of 100 to 500 nM. Moreover, in assay [2], the Ratio amounted to 5.79 and the IC50 was 10 to 50 nM.

Turning to `C[C@H](Nc1nc(C(=O)N2CC[C@@H](F)C2)c2sc(N)cc2n1)c1cccnc1` [Example Z195, (6-Amino-2-(((S)-1-(pyridin-3-yl)ethyl)amino)thieno[3,2-d]pyrimidin-4-yl)((R)-3-fluoropyrrolidin-1-yl)methanone], in assay [1], the IC50 was 100 to 500 nM. Also, in assay [2], the Ratio is given as 17.59 and the IC50 lay within 10 to 50 nM.

For the compound `C[C@H](Nc1nc(C(=O)N2CC[C@H](O)C2)c2sc(N)cc2n1)c1cccnc1` [Example Z196, (6-Amino-2-(((S)-1-(pyridin-3-yl)ethyl)amino)thieno[3,2-d]pyrimidin-4-yl)((S)-3-hydroxypyrrolidin-1-yl)methanone], the IC50 in assay [1] is above 500 nM. Besides, in assay [2], the Ratio is 102.27 and the IC50 was 10 to 50 nM.

The values above are taken from patent US11254686B1 (Corvus Pharmaceuticals, Inc., priority 2017, dated 2022).
